EP0073849A1, “Novel phenyl-1,2,3,4-tetrahydrocarbazoles, their preparation and pharmaceutical compositions containing them” (priority 1981, dated 1983)

Experiments:
rat muricide = rat muricide test; format: in vivo; settings: ip, intraperitoneal administration
Source text: In the rat muricide test (based on the method of Horovitz et al., Int. J.

[1] = test system: abnormal behaviour of beagles; assay: improvement of abnormal behaviour in beagles; format: in vivo; settings: Canis lupus familiaris, po; read-out: MED for improvement of abnormal behaviour in beagles
[2] = test system: behaviour, neurologic function, autonomic function; settings: rat, in vivo, ip
[3] = test system: beagles with normal behaviour; assay: in vivo; settings: dog, po
in vivo [4] = assay: in vivo; design: species or system beagles; settings: dog, po
in vivo [5] = settings: rat, ip

`CN(C)CCC=C1c2ccccc2CCc2ccccc21` [Amitriptyline] showed an ED50 (rat muricide) of 5.2 mg/kg.

For `CN(C)CCCN1c2ccccc2CCc2ccccc21` [Imipramine], the minimal effective dose [1] was 10 mg/kg, the ED50 (rat muricide) was 6.4 mg/kg and the “dosage levels that cause changes in behaviour, in neurologic function or in autonomic function” value [2] was 30 mg./kg. For the same molecule, the “dose causing decreased motor activity and passivity” value [3] was 30 mg/kg, the “dose causing decreased motor activity and passivity as multiple of the MED” value [3] was “three” and the “dose causing tremors and mydriasis” value [3] was 10 mg/kg.

In the case of `COc1ccc2[nH]c3c(c2c1)CC(c1ccccc1)CC3` (stereo not drawn) [Test compound, 6-Methoxy-3-phenyl-1,2,3,4-tetrahydrocarbazole], the minimal effective dose [1] is reported as 10 mg/kg, the ED50 (rat muricide) is reported as 1.7 mg/kg and the “dosage levels that cause changes in behaviour, in neurologic function or in autonomic function” value [2] is reported as 100-1000 mg./kg. The NOAEL at 6 h (in vivo [4]) was > 60 mg/kg and the selectivity ratio (in vivo [5]) was 50 to 500.
